Columns and labels:
[1] = Ability of sphingolipids to form channels in membranes; type: biochemical
From the text: The present invention establishes that sphingosine is capable of directly disassembling ceramide channels, thus proving the existence of this novel anti-apoptotic regulatory step. The ability of sphingosine, sphingosine-1-phosphate ([…]) and ceramide-1-phosphate the ability to form channels was investigated.

[2] = test system: ceramide channels; experiment: Screening for influence on ceramide channel formation in liposomes or planar membranes; type: biochemical
From the text: In one embodiment, such methods comprise screening compounds for their ability to influence the formation of ceramide channels in liposomes or planar membranes. […] Such liposomes or planar membranes can be produced using any of a variety of lipids. Preferably, however, the constituents of the liposomes or planar membranes will be selected to mimic those of the MOM, or to have relevance to such membranes (see, Weissig, V. et al. (2006) “LIPOSOMES AND LIPOSOME-LIKE VESICLES FOR DRUG AND DNA DELIVERY TO MITOCHONDRIA,” J. Liposome Res. 16(3):249-264; Torchilin, V. P. (2006) “RECENT APPROACHES TO INTRACELLULAR DELIVERY OF DRUGS AND DNA AND ORGANELLE TARGETING,” Annu. Rev. Biomed. Eng. 8:343-375; Elrick, M. J. et al. (2006) “SPHINGOSINE, A PRODUCT OF CERAMIDE HYDROLYSIS, INFLUENCES THE FORMATION OF CERAMIDE CHANNELS,” Biophys. J. 1; 91(5):1749-1756; Bathori, G. et al. (2006) “CA2+-DEPENDENT CONTROL OF THE PERMEABILITY PROPERTIES OF THE MITOCHONDRIAL OUTER MEMBRANE AND VOLTAGE-DEPENDENT ANION-SELECTIVE CHANNEL (VDAC),” J. Biol. Chem. 281(25):17347-17358; Stiban, J. et al. (2006) “DIHYDROCERAMIDE HINDERS CERAMIDE CHANNEL FORMATION: IMPLICATIONS ON APOPIOSIS,” Apoptosis 11(5):773-780; Stover, T. C. et al. (2005) “SYSTEMIC DELIVERY OF LIPOSOMAL SHORT-CHAIN CERAMIDE LIMITS SOLID TUMOR GROWTH IN MURINE MODELS OF BREAST ADENOCARCINOMA,” Clin. Cancer Res. 11(9):3465-3474).

[3] = published value; cited from earlier work

## CCCCCCCCCCCCC/C=C/[C@@H](O)[C@@H](N)CO [sphingosine]
[1]
  ability to form channels: produced real channels
[2]
  concentration at which very potent inhibitor of ceramide channels: 5 µM
[3]
  CMC: more than 30 μg/mL
